Data from US20130123618A1, “Imaging Agents” (priority 2008, published 2013).

Columns and labels:
[1] = system: DU145 Human Prostate carcinoma cells; experiment: in vitro amino acid uptake in DU145 cells; assay type: cell-based
Text: (§1) Compounds have been evaluated in vitro for tumor binding specificity (i.e. uptake cells) using a variety of tumor cell lines available in the art, along with reference compounds such as Me-AlB and BCH. Detailed description of these assays can be found in Martarello et al. (2002) Journal of Medicinal Chemistry, 45:2250-2259 and McConathy et al. (2003) Nuclear Medicine and Biology, 30:477-490. These so called “amino acid uptake studies” are typically carried out with radiolabeled compounds in at least five phenotypically different human tumor cell lines (e.g., A549 lung carcinoma, MB468 breast carcinoma, DU145 prostate carcinoma-androgen independent, LnCap-androgen dependent, SKOV3 ovarian carcinoma, U87 glial blastoma, MIA PaCa-2 pancreas carcinoma, MDA MB231 breast carcinoma). These tumor cell lines can be grown either in vitro or in vivo with severe combined immunodeficiency (SCID) mice as a host. The afore-mentioned tumor cell lines are available at the Winship Cancer Institute of Emory University.
(§2) For the in vitro amino acid uptake studies, all cells can be grown to monolayer confluency in T-175 culture flasks [Corning, Corning, N.Y.] (approx. 1×10^8 cells/flask) in Dulbecco's Modified Eagle's Medium (DMEM) [Sigma, St. Louis, Mo.] in a humidified incubator (37° C., 5% CO2/95% air). […]
(§3) In the in vitro studies the uptake rate of each amino acid compound is measured in each tumor line, as well as the dominant transport mechanisms of each tumor cell line. After trypsinization, cells are resuspended in serum-free media, then counted on a hemocytometer, with viability assessed through Trypan blue staining. […] The vials are placed in a Cobra-II gamma counter (Packard, Meriden, Conn.), with the activity per cell number determined. […] Saline washes are performed as described above, and the filtered cells' radioactivity determined on the gamma counter. […]
(§4) The uptake of all compounds were measured in human and rat cancer cell lines and the dominant transport (“A” and “L”) mechanism of each culture were determined. […]

[2] = system: A549 Human Lung adenocarcinoma cells; experiment: in vitro amino acid uptake in A549 cells; assay type: cell-based
Text: as §1, §2, §3, §4

[3] = system: SKOV3 Human Ovarian carcinoma cells; experiment: in vitro amino acid uptake in SKOV3 cells; assay type: cell-based
Text: as §1, §2, §3, §4

[4] = system: DU145, human prostate cancer cells implanted in flanks; experiment: tissue distribution in SCID mice bearing DU145 tumors; assay type: in vivo; conditions: for tissue distribution, blood / tissue distribution, bone / tissue distribution, brain / tissue distribution, heart / tissue distribution, kidney / tissue distribution, liver / tissue distribution, lung / tissue distribution, muscle / tissue distribution, pancreas / tissue distribution, spleen / tissue distribution, tumor: DU145 tumor-bearing SCID mice, tail vein, ave
Description: For the in vitro amino acid uptake studies, all cells can be grown to monolayer confluency in T-175 culture flasks [Corning, Corning, N.Y.] (approx. 1×10^8 cells/flask) in Dulbecco's Modified Eagle's Medium (DMEM) [Sigma, St. Louis, Mo.] in a humidified incubator (37° C., 5% CO2/95% air). Media are supplemented with 10% fetal calf serum [Hyclone, Logan, Utah], and antibiotics (10,000 U/ml penicillin and 10 mg/ml streptomycin) (Sigma, St. Louis, Mo.). For tissue culture passage, monolayer cells are detached by gentle trypsinization, resuspended in complete media, and split 1:10 into new T-flasks. Cultures are passaged weekly, and fed fresh media every 2 to 3 days. To initiate tumor growth in SCID mice, 1×10^6 cells are injected s.c. bilaterally into the flanks (inguinal region) of the recipient animals using a 1 ml syringe with a 27 gauge needle. Ex vivo experiments can be performed with animals containing tumors weighing between 500 mg and 1 g, as estimated by caliper measurement (tumor weight=(π/6)*abc, where a, b and c are the tumor length, width and height, respectively).
Tissue distribution of the compounds is measured in SCID mice (average weight, 20-25 g) bearing human tumors as follows. The candidate radioligands (20 uCi in 0.4 ml 0.9% NaCl) are injected into the tail vein of tumor-bearing mice. […] Tissues (blood, heart, liver, lungs, kidneys, bone, thyroid, muscle, brain and tumor) are excised, rinsed in saline, and blotted dry. The tissues are weighed, placed into 12×75 mm glass vials, the radioactivity determined with a gamma counter, and the percent dose/gram calculated. Total activities of blood and muscle are calculated by assuming that they account for 7% and 40% of the total body mass, respectively.
Tables 3-7 show the results of the biodistribution studies with the separate enantiomers of anti-2-[^18F]FACPC and racemic anti-2-[^18F]FACBC as a comparison in SCiD mice implanted in their flanks with A549, human lung cancer cells and DU145, human prostate cancer cells.

9L Rat gliosarcoma cells = experiment: in vitro amino acid uptake in 9L cells; assay type: cell-based
Text: as §1, §2, §3, §4

## NC1(C(=O)O)CCC1[18F] (racemic) [racemic anti-2-[^18F]FACBC]
[1]
  % Dose uptake per 0.5 × 10−6 Cells: 6.4 % Dose/0.5 × 10^−6
[2]
  % Dose uptake per 0.5 × 10−6 Cells: 8.9 % Dose/0.5 × 10^−6
[3]
  % Dose uptake per 0.5 × 10−6 Cells: 2.2 % Dose/0.5 × 10^−6
[4]; 15 min
  tissue distribution, blood: 2.80 percent dose/gram
  tissue distribution, bone: 1.06 percent dose/gram
  tissue distribution, brain: 0.17 percent dose/gram
  tissue distribution, heart: 2.07 percent dose/gram
  tissue distribution, kidney: 6.82 percent dose/gram
  tissue distribution, liver: 2.32 percent dose/gram
  tissue distribution, lung: 3.35 percent dose/gram
  tissue distribution, muscle: 0.83 percent dose/gram
  tissue distribution, pancreas: 29.02 percent dose/gram
  tissue distribution, spleen: 4.38 percent dose/gram
  tissue distribution, tumor: 2.95 percent dose/gram
[4]; 30 min
  tissue distribution, blood: 1.86 percent dose/gram
  tissue distribution, bone: 1.63 percent dose/gram
  tissue distribution, brain: 0.16 percent dose/gram
  tissue distribution, heart: 1.82 percent dose/gram
  tissue distribution, kidney: 4.47 percent dose/gram
  tissue distribution, liver: 2.09 percent dose/gram
  tissue distribution, lung: 2.32 percent dose/gram
  tissue distribution, muscle: 1.00 percent dose/gram
  tissue distribution, pancreas: 29.29 percent dose/gram
  tissue distribution, spleen: 4.74 percent dose/gram
  tissue distribution, tumor: 3.54 percent dose/gram
[4]; 60 min
  tissue distribution, blood: 0.80 percent dose/gram
  tissue distribution, bone: 2.22 percent dose/gram
  tissue distribution, brain: 0.18 percent dose/gram
  tissue distribution, heart: 1.32 percent dose/gram
  tissue distribution, kidney: 1.82 percent dose/gram
  tissue distribution, liver: 1.23 percent dose/gram
  tissue distribution, lung: 1.18 percent dose/gram
  tissue distribution, muscle: 1.15 percent dose/gram
  tissue distribution, pancreas: 15.01 percent dose/gram
  tissue distribution, spleen: 2.85 percent dose/gram
  tissue distribution, tumor: 2.57 percent dose/gram
[4]; 120 min
  tissue distribution, blood: 0.39 percent dose/gram
  tissue distribution, bone: 0.66 percent dose/gram
  tissue distribution, brain: 0.13 percent dose/gram
  tissue distribution, heart: 0.82 percent dose/gram
  tissue distribution, kidney: 0.78 percent dose/gram
  tissue distribution, liver: 0.43 percent dose/gram
  tissue distribution, lung: 0.46 percent dose/gram
  tissue distribution, muscle: 0.72 percent dose/gram
  tissue distribution, pancreas: 5.92 percent dose/gram
  tissue distribution, spleen: 0.87 percent dose/gram
  tissue distribution, tumor: 1.85 percent dose/gram
[4]; DU145 tumors, SCID mice, time points sampled post injection
  uptake of radioactivity in the tumors compared with muscle: greater than muscle
9L Rat gliosarcoma cells
  % Dose uptake per 0.5 × 10−6 Cells: 2.3 % Dose/0.5 × 10^−6

## N[C@]1(C(=O)O)CCC[C@@H]1[18F] (single isomer, unassigned; enantiomer 1) [Enantiomer 1, anti-2-[^18F]FACPC]
[1]
  % Dose uptake per 0.5 × 10−6 Cells: 8 % Dose/0.5 × 10^−6
[2]
  % Dose uptake per 0.5 × 10−6 Cells: 13 % Dose/0.5 × 10^−6
[3]
  % Dose uptake per 0.5 × 10−6 Cells: 7 % Dose/0.5 × 10^−6
[4]; DU 145 cells implanted subcutaneously in flanks of SCID mice
  in vivo uptake compared with racemic 2-[^18F]FACBC: significantly higher in vivo uptake than racemic 2-[^18F]FACBC
[4]; 15 min
  tissue distribution, blood: 3.69 percent dose/gram
  tissue distribution, bone: 2.89 percent dose/gram
  tissue distribution, brain: 0.70 percent dose/gram
  tissue distribution, heart: 3.76 percent dose/gram
  tissue distribution, kidney: 8.83 percent dose/gram
  tissue distribution, liver: 4.34 percent dose/gram
  tissue distribution, lung: 4.38 percent dose/gram
  tissue distribution, muscle: 2.23 percent dose/gram
  tissue distribution, pancreas: 47 percent dose/gram
  tissue distribution, spleen: 7.4 percent dose/gram
  tissue distribution, tumor: 3.82 percent dose/gram
[4]; 30 min
  tissue distribution, blood: 2.44 percent dose/gram
  tissue distribution, bone: 3.06 percent dose/gram
  tissue distribution, brain: 0.49 percent dose/gram
  tissue distribution, heart: 2.71 percent dose/gram
  tissue distribution, kidney: 5.36 percent dose/gram
  tissue distribution, liver: 2.74 percent dose/gram
  tissue distribution, lung: 2.78 percent dose/gram
  tissue distribution, muscle: 2.31 percent dose/gram
  tissue distribution, pancreas: 28 percent dose/gram
  tissue distribution, spleen: 6.70 percent dose/gram
  tissue distribution, tumor: 3.54 percent dose/gram
[4]; 60 min
  tissue distribution, blood: 1.7 percent dose/gram
  tissue distribution, bone: 2.58 percent dose/gram
  tissue distribution, brain: 0.62 percent dose/gram
  tissue distribution, heart: 2.2 percent dose/gram
  tissue distribution, kidney: 4.07 percent dose/gram
  tissue distribution, liver: 1.96 percent dose/gram
  tissue distribution, lung: 1.91 percent dose/gram
  tissue distribution, muscle: 2.15 percent dose/gram
  tissue distribution, pancreas: 22 percent dose/gram
  tissue distribution, spleen: 2.79 percent dose/gram
  tissue distribution, tumor: 3.07 percent dose/gram
9L Rat gliosarcoma cells
  % Dose uptake per 0.5 × 10−6 Cells: 12 % Dose/0.5 × 10^−6
